# Source: a melting point compilation (Tetko et al.; mined from patent text by program, amines drawn as free bases though some values may be those of a salt)
row,Structure (SMILES),melting point
1,CS(=O)(=O)c1ccc(-c2sc(Nc3ccc(C#N)cc3)nc2-c2ccc(F)cc2)cc1,273 to 274 °C
2,COc1ccc(-n2nc(Sc3ccc(Cl)c(Cl)c3)c(C)c(C#N)c2=O)cc1,168 to 171 °C
3,O=C(NCCN1CCN(C(c2ccccc2)c2ccncc2)CC1)C1CSC(c2cccnc2)N1 (centres undefined),160 to 162 °C
4,N#Cc1c(F)cc(OCc2ccncc2)cc1OC(C(=O)O)c1ccccc1Cl (racemic),135 to 139 °C
5,CC(=O)CSc1ncc(C)n1C,65 to 67 °C
6,Cc1cc(C(=O)N2Cc3ccc(C(=O)N(C)C[C@H](O)[C@H]4OC(=O)O[C@@H]4[C@H](O)CO)n3Cc3ccccc32)ccc1C1=CCCCC1,166 to 175 °C
7,Cc1ccc(C)c(-c2sc(NC(=O)[C@@H]3CC4CCC3CC4)c(C#N)c2Cl)c1,208 to 210 °C
8,O=C(c1ccccc1)c1ccc(NC(=O)C(O)(C(F)F)C(F)F)cc1,139 to 142 °C
9,CN1Cc2c(C#Cc3ccc(Cl)cc3)ncn2-c2ccc(F)cc2C1=O,221 to 222 °C
10,CS(=O)(=O)c1ccc(-n2nc(C(F)(F)F)cc2-c2ccc(Br)cc2)cc1F,64 to 65 °C
11,CNc1cc(OC)c(C(=O)NCC23CCCN(CCC2)C3)cc1Cl,188 to 190 °C
12,CC1CC(N)=NN1c1cccc(Cl)n1 (centres undefined),105 to 107 °C
13,COc1cn(-c2cc3c(cc2F)OC(F)(F)C(F)(F)O3)nc(-c2ccnn2-c2ccccc2)c1=O,192 to 194 °C
14,CC(C)N1Cc2ccccc2N(CCN2CCC(c3c[nH]c4cc(F)ccc34)C2)S1(=O)=O (centres undefined),50.8 to 54.4 °C
15,O=C1c2ccc(=O)[nH]c2CC2CCCCC12 (centres undefined),301 to 303 °C
16,CCOc1cc(CCl)cc(OCc2nc(-c3ccccc3)oc2C)c1,86 to 87 °C
17,COC(=O)c1c[nH]c(Cl)c1,92 °C
18,C#Cc1cnc(C2=NC(C)(C(C)C)C(=O)N2)c(C(=O)O)c1 (centres undefined),190 to 195 °C
19,CC(C)CCCC(C)C1CCC2C3CC=C4CC(OS(C)(=O)=O)CCC4(C)C3CCC12C (centres undefined),119 to 120 °C
20,Cc1c(C)c(N2CCN(c3nccs3)CC2)c(C)c2c1OC(C)(C)C2,150 to 151 °C
21,CC(C)C(C)(C(=O)NCCc1ccccn1)C(C)C,60 to 61 °C
22,Nc1nc(NC2CCc3ccccc32)c2ncn(C3OC(CO)C(O)C3O)c2n1 (centres undefined),143 to 146 °C
23,COc1cc2c(cc1Cl)C(O)(c1ccccc1Cl)C(=O)N2 (centres undefined),237 to 240 °C
24,CP1(=O)c2ccccc2CN1c1ccccc1 (centres undefined),94 to 97 °C
25,O=C(O)c1cc(S(=O)(=O)CCO)ccc1[N+](=O)[O-],165 to 167 °C

row,Structure (SMILES),melting point
1,CCOC(=O)COc1cc2c(c(Cl)c1Cl)C(=O)C(C)(C(C)C)C2Br (centres undefined),83 to 85 °C
2,C=CCNC(=O)NCC1Cc2ccc(-c3ccc(=O)[nH]n3)cc2C1 (centres undefined),208 to 209 °C
3,Cc1c(NC(=O)N2CCC(c3ccc(Cl)cc3)CC2)ccc2cc(CN3CCCC3)cnc12,203 to 205 °C
4,CN(C)C=Nc1nc2c(s1)C(=O)C(=CN(C)C)CC2,185 to 186 °C
5,CCCC(=O)NCc1ccc(NC(=O)/C=C/c2cnn(C)c2-c2ccc(F)cc2)cc1,259 to 260 °C
6,COc1ccc(-c2nnc3cc(-c4ccccc4)c(OCc4ncn(C)n4)nn23)cc1,205 to 206 °C
7,Nc1ccc(Cl)nc1I,148 °C
8,CCOC(=O)c1cnc2cccc(O)c2c1,240 °C
9,CC(C)(C)[C@@H](CO)NS(=O)(=O)c1ccc(Cl)cc1,128 to 130 °C
10,CCCOc1ccccc1-c1nc2c(CCCCc3ccccc3)cccc2c(=O)[nH]1,82 °C
11,S=C=Nc1ccc(-c2nc(-c3ccco3)no2)cc1,136 to 137 °C
12,COc1cc(F)ccc1C(=O)NCCN1CCC(O)(c2ccc(Cl)cc2)CC1,157 °C
13,N#Cc1nc(Cl)c(Cl)nc1C#N,180 to 182 °C
14,NC(=S)N(c1ccccc1)c1cccc(NNC=O)c1,143 to 145 °C
15,CC1(C)CCC(C)(C)c2cc(CO)ccc21,74 to 75 °C
16,CCC(O)CC(O)CC (centres undefined),60 to 65 °C
17,CC(C)(C)[Si](C)(C)Oc1ccc(NC(=O)CCl)cc1,107 to 108 °C
18,OC1OC2C(Br)C3CC1C2C3 (centres undefined),61 °C
19,CC(C#CC1CCCC1)N(O)C(N)=O (centres undefined),140 to 141 °C
20,COc1cccc(C(=O)NCC2CCCCC2)c1NC(=O)N[C@@H](Cc1ccc(NC(=O)c2c(Cl)cccc2Cl)cc1)C(=O)O,175 °C
21,CC1(C)CCC(C)(C)c2cc(-c3cc(-c4ccc(C(=O)O)cc4)ccc3OCCCCCCCO)ccc21,168 to 172 °C
22,CCCCC1(N(C)C)CCC(c2[nH]c3ccccc3c2Cc2ccccc2)CC1 (centres undefined),72 to 78 °C
23,COC(=O)[C@H](Cc1c(Br)n(Cc2ccccc2)c2cc(Br)c(OC)c(Br)c12)NC(C)=O,226 to 227 °C
24,COc1ccc2c(c1)C(C)(C)NC(=O)O2,178 to 180 °C
25,COc1ccc(-c2cc(=O)n(CC3CC3)nc2-c2ccc(OC)c(F)c2)cc1F,142 to 143 °C

row,Structure (SMILES),melting point
1,CCCc1c(OCc2ccccc2)ccc2c(=O)cc(/C=C/C(=O)OCC)oc12,140 °C
2,CCOC(=O)c1nc(-c2ccc(Cl)cc2F)nc(N)c1Cl,131 to 132 °C
3,Cc1nc2c(N)nc3ccccc3c2n1CC(C)(C)OCCS(C)(=O)=O,253 to 255 °C
4,C=Cc1ccccc1C(=O)n1nnc2ccccc2c1=O,120 °C
5,CC(C)(C)[Si](C)(C)OC1CCCc2cnc3cc(OCc4ccccc4[N+](=O)[O-])ccc3c21 (centres undefined),150 to 152 °C
6,C=CCC1C=C(c2c[nH]c(-c3ccc(F)cc3)c2-c2ccncc2)CCN1C (centres undefined),218 to 220 °C
7,Cn1ncnc1COc1nn2c(-c3ccccc3)nncc2c1-c1ccccc1,185 °C
8,Fc1ccc(NCc2ccc(NCc3ccccc3)nc2)nc1,166 to 168 °C
9,COc1ccc(CCCCOc2cc(-c3nc4cc(C(=O)O)ccc4[nH]3)ccc2OC)cc1,167 to 169 °C
10,CC(=O)OC1CSC(Oc2cncc(-c3ccc(C)cc3)c2)C(OC(C)=O)C1OC(C)=O (centres undefined),160 to 162 °C
11,CC(C)c1cccc(C(C)C)c1NC(=O)Cc1c(-c2ccccc2)c2cc(Cl)ccc2n1C,279 to 280 °C
12,CCOC(=O)CNC(=O)[C@H](CSCc1ccccc1)NC(=O)OCc1ccccc1,93 to 95 °C
13,O=C(CCCN1CCC(O)CC1)c1ccccc1,101 to 102 °C
14,Cc1cc(NCCO)c2[nH]nc(C)c2n1,225 to 230 °C
15,CCOP(=O)(Cc1cc(C2CCCCC2)c(O)c(C2CCCCC2)c1)OCC,120 °C
16,OCc1c(Cl)nc(C2CCCCC2)n1Cc1ccccc1,160 to 161 °C
17,COc1cc2c3c(n(C)c(=O)c2cc1OC)-c1cc2c(cc1C3=CCCCCl)OCO2,196 to 201 °C
18,Cc1cc(SCC#Cc2cccc(C(F)(F)F)c2)ccc1OCC(=O)O,81 to 82 °C
19,O=C(CON1C(=O)c2ccccc2C1=O)OC(c1ccccc1)c1ccccc1,173 to 175 °C
20,CC(C)(C)NCC(O)COc1ccc(C=O)cc1 (centres undefined),123 to 126 °C
21,Cn1c(Cc2cccc(C(F)(F)F)c2)nc2c(-c3cccc(C(=O)O)c3)cccc21,175 to 177 °C
22,CCCCCc1c([N+](=O)[O-])cc([N+](=O)[O-])c2nc(C(F)(F)F)[nH]c12,86 to 88 °C
23,CSc1ccc(C2=NC[C@@H](OC(=O)Nc3ccccc3)[C@H](c3ccccc3)O2)cc1 (racemic),170 °C
24,COc1cc2nc(S(=O)(=O)Nc3c(Cl)cccc3Cl)nn2c(OC)n1,211 to 212 °C
25,CC(=S)c1ccc(-c2ccccc2)cc1,48 to 50 °C

row,Structure (SMILES),melting point
1,CN(C)C=NS(=O)(=O)c1ccccc1-c1ccc(Cn2c(-c3ccccc3)nc(Cl)c2C=O)cc1,193 °C
2,O=C1c2ccccc2C(=O)N1OCc1cn(C(c2ccccc2)(c2ccccc2)c2ccccc2)nn1,195 to 200 °C
3,COC(=O)/C=C/COc1cc(-n2ncc(C(F)(F)F)c(C)c2=O)c(F)cc1Cl,153 °C
4,CCN(c1cc2c3c(c1)CCCC3(C)CCC2)c1ncc(C(=O)O)cn1,257 to 258 °C
5,O=C(Nc1ccc2c(c1)C(=O)c1cc(NC(=O)c3ccccc3)ccc1C2=O)c1ccccc1,224 °C
6,CC(C)N(CCNC(=O)c1csc(NC(=O)C2=CC=CC(=Nc3ccc[nH]3)C2)n1)C(C)C,160 to 162 °C
7,CCOC(=O)c1cc2c(O)c(C(=O)OCC)n(C)c2nc1C(=O)OCC,129 to 130 °C
8,CCc1cnc2c(NC(=O)c3c(Cl)cccc3Cl)cccc2c1CC(=O)OC,167 to 168 °C
9,CCCCCC(C)N(C=C1C(=O)OC(C)(CNc2cc(C(C)(C)C)c(O)c(C(C)(C)C)c2)OC1=O)Cc1ccc(CC(C)(C)C)s1 (centres undefined),184 to 185 °C
10,Cc1oc(-c2ccccc2)nc1COc1ccc(CCc2nnn[nH]2)cc1,203 to 204 °C
11,C[C@@H](Nc1ncnc2[nH]c(-c3ccc(CNC(=O)CCN4CCCCC4)cc3)cc12)c1ccccc1,140 °C
12,CC(c1n[nH]c(=O)[nH]1)N1CCC[C@H](O[C@H](C)c2cc(C(F)(F)F)cc(C(F)(F)F)c2)[C@@H]1c1ccccc1 (some centres undefined),257 to 258 °C
13,CC(=O)Nc1ccc2c(c1)C(=O)c1cc(NC(C)=O)ccc1C2=O,340 °C
14,NNc1c(F)cc(F)c(F)c1F,63 to 65 °C
15,NC(=O)C(c1ccccc1)(c1ccccc1)c1ccc(N)cn1,215 to 220 °C
16,COc1cccc(C=N[C@H](C)c2ccc([N+](=O)[O-])cc2)c1O,88 to 90 °C
17,CCCc1cc(Cl)c2oc(C(=O)c3ccc(OC)cc3)c(C)c2c1OC(=O)c1ccc(OC)cc1,103 to 105 °C
18,O=C(O)c1cc(OCc2ccccc2)ccc1OCc1ccccc1,107 to 108 °C
19,O=C(O)c1ccc2c(=O)nc(-c3ccccn3)sc2c1,295 °C
20,Clc1ccc2c(C3=CCN(CCC4CCc5ccccc54)CC3)c[nH]c2c1 (centres undefined),181 to 183 °C
21,CCN1CCNC(=O)c2ccc(Nc3ncc(Cl)c(Nc4ccccc4-c4nccn4C)n3)cc21,143 to 151 °C
22,COC(=O)c1ccc(OCCNC(=O)c2ccc(Br)cc2)cc1,134 to 136 °C
23,CN1CC=C(c2c[nH]c3ccc(N)cc23)CC1,200 to 203 °C
24,Cc1c(-c2ncc(Cl)cc2F)nn(C)c1C(N)=O,201 to 204 °C
